Source: patent US10307437B2, “Methods for treatment of vascular endothelial dysfunction using nicotinamide mononucleotide” (The Regents of the University of Colorado, a Body Corporate, priority 2014, dated 2019)
“Also recorded” adds a separate entry of the source.

Tests used:
C57Bl/6 male mice [1] = test: Ex vivo carotid artery vasodilatory responses after NMN supplementation in drinking water
C57Bl/6 male mice [2] = test: In vivo aortic pulse wave velocity; conditions: young mice, NMN 240 mg/kg/day, 8 weeks
Excerpt: (§1) Young (4-8 months) C57Bl/6 male mice were purchased from Charles River and old (26-28 months) C57Bl/6 male mice were obtained from the National Institute on Aging rodent colony. Mice were fed normal rodent chow ad libitum for the duration of the study. After an acclimation period of 2 weeks, the young and old mice were divided into two subgroups: control animals (YC, OC) continued on normal drinking water and the other animals (YNMN, ONMN) received nicotinamide mononucleotide (NMN; Sigma-Aldrich Corp., St. Louis, Mo., USA) supplementation in the drinking water (240 mg/kg/day) for 8 weeks. All mice were housed in an animal care facility at the University of Colorado Boulder on a 12:12 hour light-dark cycle. […]
Aortic pulse wave velocity (aPWV) was measured as described previously (Sindler A. L. et al. 2011, Aging Cell. 10, 429-437; Fleenor B. S. et al. 2012b, Exp Gerontol. 47, 588-594). […] Aortic blood flow velocity was measured with two Doppler probes placed at the transverse aortic arch and abdominal aorta, respectively. Pre-ejection time, the time between the R-wave of the ECG to foot of the Doppler signal, was determined for each site. aPWV was calculated by dividing the distance between the transverse and abdominal probes by the difference in the thoracic and abdominal pre-ejection times.

superoxide = test: Aortic superoxide production by EPR spectroscopy; format: in vivo; conditions: young mice, NMN 8 weeks
Excerpt: (§2) Young (4-8 months) C57Bl/6 male mice were purchased from Charles River and old (26-28 months) C57Bl/6 male mice were obtained from the National Institute on Aging rodent colony. Mice were fed normal rodent chow ad libitum for the duration of the study. After an acclimation period of 2 weeks, the young and old mice were divided into two subgroups: control animals (YC, OC) continued on normal drinking water and the other animals (YNMN, ONMN) received nicotinamide mononucleotide (NMN; Sigma-Aldrich Corp., St. Louis, Mo., USA) supplementation in the drinking water (240 mg/kg/day) for 8 weeks. All mice were housed in an animal care facility at the University of Colorado Boulder on a 12:12 hour light-dark cycle. All animal procedures conformed to the Guide to the Care and Use of Laboratory Animals (NIH publication No. 85-23, revised 1996) and were approved by the UCB Animal Care and Use Committee.
Measurement of superoxide production in the thoracic aorta was performed using electron paramagnetic resonance (EPR) spectroscopy, as previously described (LaRocca T. J. et al. 2013, Mech Ageing Dev. 134, 314-320). […] The signal amplitude was analyzed using an MS300 X-band EPR spectrometer (Magnettech GmbH, Berlin, Germany) with the following settings: centrefield, 3350 G; sweep, 80 G; microwave modulation, 3000 mG, and microwave attenuation, 7 dB. […]

nitrotyrosine = test: Western blot of aortic nitrotyrosine abundance; format: in vivo, mice; conditions: NMN 8 weeks
Excerpt: as §1
(§3) Aortas were used as a surrogate large elastic artery to provide sufficient tissue for analysis of protein expression by Western blot as described previously (Donato A. J. et al. 2013, J Physiol. 589, 4545-4554; Gano L. B. et al. 2014, Am J Physiol Heart Circ Physiol. 307, H1754-1763). […] Relative intensity was quantified using Image-J Software Version 1.0. […] The ratio of acetylated to total p65 was determined by running two identical Western blots. […] The ratio of acetylated to total p65 was determined for each animal and then normalized to the YC group mean.

SIRT1 [3] = test: Western blot of aortic SIRT1 expression; format: in vivo, mice; conditions: NMN 8 weeks
Excerpt: as §1, §3

collagen type I = test: Immunohistochemistry of aortic collagen type I; format: in vivo; conditions: old mice, NMN 8 weeks
Excerpt: as §2
(§4) Immunohistochemistry was used to determine aortic expression of collagen type I and elastin as previously described (Fleenor B. S. et al. 2010 J Physiol. 588, 3971-3982). […] Digital photomicrographs were obtained using a Nikon Eclipse TS100 photomicroscope, and quantification was performed with Image-J Software Version 1.0. The adventitial and medial layers for each sample were quantified together for whole vessel expression. […]

elastin = test: Immunohistochemistry of aortic elastin; format: in vivo; conditions: old mice, NMN 8 weeks
Excerpt: as §2, §4

[4] = design: species or system mice; conditions: mouse, in vivo
Excerpt: as §2
Data are presented as mean±SEM in text, figures and tables. All analyses were performed with SPSS. A one-way ANOVA (Analysis of Variance) was used to analyze morphological characteristics, maximum EDD, NO-mediated EDD, EPR spectroscopy, aPWV, elastic modulus, Western blots, and immunohistochemistry. Within-group differences in the maximal EDD dose response to acetylcholine in the absence vs. presence of TEMPOL was determined using two-factor (group×treatment) repeated-measures ANOVA. […]

SIRT1 [5] = target: T1, SIRT1 (Mus musculus, UniProt Q923E4); test: SIRT1 activation by ratio of acetylated to total NFκB (p65 subunit) in aorta; format: in vivo; design: Aortas were used as a surrogate large elastic artery to provide sufficient tissue for analysis of protein expression by Western blot; from tissue; host or cells: mouse aorta (C57Bl/6); conditions: old mice, NMN 8 weeks
T1 sequence (Q923E4 1-737): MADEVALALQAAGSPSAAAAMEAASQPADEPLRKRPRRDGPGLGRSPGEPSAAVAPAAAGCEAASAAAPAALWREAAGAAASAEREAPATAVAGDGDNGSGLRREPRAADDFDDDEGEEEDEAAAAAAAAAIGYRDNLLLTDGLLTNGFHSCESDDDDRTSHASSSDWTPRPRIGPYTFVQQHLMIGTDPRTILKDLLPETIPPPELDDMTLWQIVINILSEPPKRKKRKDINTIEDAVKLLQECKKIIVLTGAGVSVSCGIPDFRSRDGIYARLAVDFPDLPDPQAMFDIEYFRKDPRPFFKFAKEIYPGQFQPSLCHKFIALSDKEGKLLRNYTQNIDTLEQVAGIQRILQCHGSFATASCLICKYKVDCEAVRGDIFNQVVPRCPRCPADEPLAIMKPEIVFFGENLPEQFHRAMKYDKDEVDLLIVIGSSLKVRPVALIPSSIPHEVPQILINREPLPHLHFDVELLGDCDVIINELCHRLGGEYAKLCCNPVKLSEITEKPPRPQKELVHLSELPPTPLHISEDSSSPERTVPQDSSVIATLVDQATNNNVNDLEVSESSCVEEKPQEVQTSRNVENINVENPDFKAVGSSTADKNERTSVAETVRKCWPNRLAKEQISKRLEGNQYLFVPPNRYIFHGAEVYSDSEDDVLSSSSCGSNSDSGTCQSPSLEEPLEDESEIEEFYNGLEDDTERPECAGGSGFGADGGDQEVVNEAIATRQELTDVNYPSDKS
Excerpt: as §1, §3

carotid arteries = test: Ex vivo incubation of isolated carotid arteries with TEMPOL, EDD to acetylcholine; design: species or system mice; conditions: other groups (YC, YNMN, ONMN); TEMPOL 0.1 mM, 1 hour incubation
Description: EDD and endothelium-independent dilation were determined ex vivo in isolated carotid arteries as previously described (Rippe C. et al. 2010, Aging Cell. 9, 304-312; Sindler A. L. et al. 2011, Aging Cell. 10, 429-437). Mice were anesthetized using isoflurane and euthanized by exsanguination via cardiac puncture. The carotid arteries were carefully excised, cannulated onto glass micropipette tips, and secured with nylon (11-0) sutures in individual myograph chambers (DMT Inc., Ann Arbor, Mich., USA) containing buffered physiological saline solutions. The arteries were pressurized to 50 mmHg at 37° C. and were allowed to equilibrate for 45 minutes before experimentation. After submaximal preconstriction with phenylephrine (2 μM), increases in luminal diameter in response to acetylcholine (ACh: 1×10^−9-1×10^−4 M; Sigma-Aldrich Corp.) with and without co-administration of the NO synthase inhibitor, L-NAME, 0.1 mM, 30 minute incubation; (Sigma-Aldrich Corp.) or the superoxide dismutase mimetic 4-Hydroxy-2,2,6,6-tetramethylpiperidine-1-oxyl (TEMPOL, 0.1 mM, 1 hour incubation; Sigma-Aldrich Corp.) were determined. Endothelium-independent dilation was determined by vasodilation in response to the NO donor sodium nitroprusside (SNP: […]-1×10^−4 M; Sigma-Aldrich Corp.).
All dose-response data are presented as percent dilation, i.e. FIGS. 1A, 1C and 2A. […]

SIRT1 [6] = target: T1, SIRT1; conditions: in part by reducing oxidative stress (Gano et al. 2014); cited from earlier work

Compound: NC(=O)c1ccc[n+]([C@@H]2O[C@H](COP(=O)([O-])O)[C@@H](O)[C@H]2O)c1 [NMN, nicotinamide mononucleotide]
- Endothelium-independent dilation to sodium nitroprusside (C57Bl/6 male mice [1]; young and old mice, NMN-treated vs controls): not significantly different; also recorded: did not influence
- EDD and NO-mediated dilation (C57Bl/6 male mice [1]; young mice, NMN 240 mg/kg/day in drinking water, 8 weeks): had no effect
- aortic pulse wave velocity (aPWV) (C57Bl/6 male mice [2]): no significant effect
- aortic superoxide production (superoxide): no significant effect
- aortic nitrotyrosine abundance (nitrotyrosine; old mice): decreased; also recorded: markedly reduced
- aortic nitrotyrosine abundance (nitrotyrosine; young mice): no significant effect
- aortic SIRT1 protein expression (SIRT1 [3]; old mice): tended to increase
- aortic SIRT1 protein expression (SIRT1 [3]; young mice): increased
- arterial collagen type I expression (collagen type I): reversed; also recorded: reduced arterial collagen type I to levels of young mice
- arterial elastin expression (elastin): partially increased; also recorded: increased elastin to levels not significantly different from young mice
- body mass across the four groups [4]: no significant differences
- vascular SIRT1 activity (ratio of acetylated to total p65 subunit of NFκB) (SIRT1 [5]): restored

Compound: CC1(C)CC(O)CC(C)(C)N1[O] [TEMPOL, 4-hydroxy-2,2,6,6-tetramethylpiperidin-1-oxyl]
- carotid artery EDD in presence of TEMPOL (carotid arteries): no significant effect; also recorded: no significant improvement

Compound: O=C(Nc1ccccc1-c1cn2c(CN3CCNCC3)csc2n1)c1cnc2ccccc2n1 [SRT1720]
- EDD in old mice (SIRT1 [6]): improves
